For the test, the target named is Bovine serum albumin (BSA) (Bos taurus, UniProt P02769). The experiment in a line: Trp fluorescence quenching. The test is classed as binding. Conditions: 5 μM BSA, 0-15 μM dye, 10 mM HEPES pH 7.4, 298 K; double-log; n = 0.35.

Structures are written as SMILES.

These results are taken from paper PMC8693680 (RSC Advances, 2021).

Sequence of Bovine serum albumin (BSA) (P02769 25-607): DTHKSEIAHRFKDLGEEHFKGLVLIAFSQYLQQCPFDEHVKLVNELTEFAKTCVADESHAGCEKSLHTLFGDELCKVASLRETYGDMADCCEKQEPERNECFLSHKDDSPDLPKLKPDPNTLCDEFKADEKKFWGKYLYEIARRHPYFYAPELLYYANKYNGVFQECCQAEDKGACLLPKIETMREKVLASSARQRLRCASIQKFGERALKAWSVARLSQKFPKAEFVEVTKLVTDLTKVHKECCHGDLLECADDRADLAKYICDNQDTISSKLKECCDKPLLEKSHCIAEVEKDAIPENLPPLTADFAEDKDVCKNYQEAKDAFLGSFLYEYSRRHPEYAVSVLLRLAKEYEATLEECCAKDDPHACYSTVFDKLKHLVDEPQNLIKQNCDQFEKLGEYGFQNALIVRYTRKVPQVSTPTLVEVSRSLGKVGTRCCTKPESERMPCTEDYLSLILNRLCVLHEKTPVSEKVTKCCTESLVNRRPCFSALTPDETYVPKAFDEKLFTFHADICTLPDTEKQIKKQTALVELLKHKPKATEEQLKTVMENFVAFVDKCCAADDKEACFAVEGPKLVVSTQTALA

In the case of `c1ccc2c(c1)Nc1ccccc1S2` [PTZ], the “Binding constant, K′” value was found to be 6190 M⁻¹.
